Where “and” joins values, the source holds several entries; their conditions need not be identical. Identical values can stand only once. One block for each molecule: values may come before it.
Key:
[1] = target: crude AD brain extracts (tau seeds) in HEK293T tau biosensor cells (Homo sapiens, UniProt P10636); assay: Tau biosensor cell seeding assay, screen with crude AD brain extracts; type: cell-based; settings: for Number of seeded aggregates in tau biosensor cells (normalized to confluence), Fig. 2e: 10 μM inhibitor on cells, seeds pre-incubated 16–18 h at 4 °C, individual replicates (n=3), DMSO control 10734.9/12808.5/11145.3; for Inhibition of seeding in biosensor cells: 10 μM screen
Sequence of crude AD brain extracts (tau seeds) in HEK293T tau biosensor cells (P10636 623-695 limits assumed): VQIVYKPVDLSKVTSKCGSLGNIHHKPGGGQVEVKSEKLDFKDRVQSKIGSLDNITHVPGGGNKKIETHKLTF
From the text: From the in silico screen, compounds were ranked and 46 were selected for further experimental validation based on the total binding energy of the ligand/fibril complex. The experimental assessment consisted of direct measures of fibril disassembly (Fig. 2d, e and Supplementary Table 3) and assessment of the seeding capability of the products of disassembled AD tau fibrils in a biosensor cell assay. Disaggregating molecules that produce active seeds are undesirable for therapy and are excluded from further study. HEK293T cells expressing CFP- or YFP-fused tau are transduced with exogenous AD tau fibrils. Externally applied AD-tau fibrils then induce the aggregation of the endogenous fluorescent tau, resulting in the formation of FRET-positive intracellular aggregates, visible as bright puncta by fluorescence microscopy (Fig. 2f). Automated image analysis of visible puncta provides an objective quantification of seeded aggregation. […] Although biosensors may be limited in reporting structural characteristics of fibril progeny, they offer exquisitely sensitive measures of tau seeding activity—the ability for fibrils to recruit monomeric protein into fibrillar form, which is thought to be the mechanism for tau spreading in AD.
Human autopsy samples were obtained by the Mayo Clinic Brain Bank and UCLA Pathology Department according to HHS regulations from patients consenting to autopsy. Samples were provided to the researchers of this study as anonymized tissues. For purification of paired helical filaments (PHFs) and straight filaments (SFs) from AD brain tissue, extractions were performed according to the previously published protocol without any modifications. […] For biosensor seeding assays with crude AD brain extracts, fresh-frozen tissue from neuropathologically confirmed AD cases was thawed and cut into a 0.2–0.3 g sections. Tissue was manually homogenized in a 15 ml disposable tube in 1 ml of 50 mM Tris, pH 7.4 with 150 mM NaCl, and then aliquoted to PCR tubes and sonicated in a cuphorn bath for 120 min under 30% power at 4 °C in a recirculating ice water bath, according to reference.
HEK293T cell lines stably expressing tau-K18 P301S-eYFP were obtained from Marc Diamond[25] and used without further characterization or authentication. […] Inhibitors were dissolved in DMSO. […] After twenty minutes, 10 µl of fibrils were added to 90 µl of tau biosensor cells. The number of seeded aggregates was determined by imaging the entire well of a 96-well plate in triplicate using a Celigo Image Cytometer (Nexcelom) in the YFP channel. The number of aggregates in a given image was determined using an ImageJ 2.3.0[50] script, which subtracts the background fluorescence from unseeded cells, and then counts the number of aggregates as peaks with fluorescence above the background using the built-in Particle Analyzer. The number of aggregates was normalized to the confluence of each well, and dose-response plots were generated by calculating the average and standard deviations from triplicate measurements.

Brain-derived tau PHFs = Brain-derived tau PHFs (Homo sapiens, UniProt P10636); assay: Dot blot analysis of EGCG time course (GT38, AT8); type: biochemical; settings: for GT38 dot blot signal (AD tau aggregates), Supp. Fig. 1 / AT8 dot blot signal (total hyperphosphorylated tau), Supp. Fig. 1: replicates
Sequence of Brain-derived tau PHFs (P10636 623-695 limits assumed): as above
Procedure: Samples were spotted onto nitrocellulose membrane, 20 µl were spotted for each condition, spotting 2 µl at a time and allowing to dry in between. The membrane was blocked for 1 h in TBST with 5% milk and washed with TBST three times. The membrane was then incubated with primary antibody (either anti-tau GT38 (obtained from Virginia Lee lab at UPenn) or anti-phospho-tau AT8 (cat # MN1020, lot # UL2906281Z), 1:4000 dilution in 2% milk/TBST solution) for 1 h, washed three times with TBST, incubated with horseradish peroxidase-conjugated secondary antibody (goat anti-mouse IgG H and L (HRP); 1:5000 Dilution in 2% milk/TBST), and washed three times in TBST. Signal was detected with Pierce ECL Plus Western Blotting Substrate (cat # 32132), and the blot was imaged with a Pharos FX Plus Molecular Imager.

Neuro2a cells = assay: MTT cytotoxicity assay; type: cell-based
Procedure: (§1) In all, 90 µL of Neuro2a cells were plated on clear 96 well plates (Falcon 353072) at 6000 cells per well and given 24 h to adhere to the plate. Subsequent treatment consisted of PHF samples that were co-incubated with or without 100 µM of small molecules for 48 h at 37 °C, with 10 µl applied per well for a final small molecule concentration of 10 µM. After another 24-h incubation at 37 °C, 20 µl of Thiazolyl Blue Tetrazolium Bromide MTT dye (Sigma; 5 mg/ml stock in DPBS) was added to each well and further incubated for 3.5 h at 37 °C. The assay was arrested by replacement of all media with 100% DMSO and transferred to a SpectraMax MF reader. Background 700 nm readings were subtracted from the absorbance readings at 570 nm. Cells treated with 100% DMSO were designated as 0% viable and those treated only with vehicle were designated as 100% viable. Other well readings were normalized to these values.

MTT cytotoxicity assay = type: cell-based; settings: mouse, Neuro2a cells, Neuro2a; final small molecule concentration 10 µM; 24 h; vehicle = 100% viable; individual replicates; read-out: MTT cell viability, compound alone, Fig. 3f
Procedure: as §1

[2] = target: T1, AD brain-derived tau fibrils (Homo sapiens, UniProt P10636); assay: Western blot of insoluble tau after compound treatment; type: biochemical; settings: 72 h at 37 °C
T1 sequence (P10636 623-695 limits assumed): as above
Procedure: Proteins were transferred from gel to nitrocellulose membrane using an iBLOT2 system. The membrane was blocked for 1 h in TBST with 5% milk and washed with TBST three times. The membrane was then incubated with primary antibody (anti-tau A0024 (Dako), 1:4000 dilution in 2% milk/TBST solution) for 1 h, washed three times with TBST, incubated with horseradish peroxidase-conjugated secondary antibody (goat anti-mouse IgG H and L (HRP); 1:5000 Dilution in 2% milk/TBST), and washed three times in TBST.

AD-tau PHF = AD-tau PHF (Homo sapiens, UniProt P10636); assay: CryoEM occupancy analysis of EGCG density; type: binding; settings: for Occupancy of density at Site 1 relative to fibril backbone / Occupancy of density at Site 2 relative to fibril backbone / Occupancy of density at Site 3 relative to fibril backbone: map low-pass filtered to 7 Å
Sequence of AD-tau PHF (P10636 623-697 limits assumed): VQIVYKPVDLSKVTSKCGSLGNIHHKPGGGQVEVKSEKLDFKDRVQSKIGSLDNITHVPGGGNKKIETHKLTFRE

[3] = target: T1, AD brain-derived tau fibrils; assay: Negative stain EM and quantitative EM (qEM) of tau fibrils after compound treatment; type: biochemical
Procedure: Negatively stained EM Grids were prepared by depositing 6 µl of sample on formvar/carbon-coated copper grids (400 mesh) for 3 min. The sample was rapidly wicked using filter paper without drying the grid and stained with 1% uranyl acetate for 2 min. […] Fibrils were counted from collections of 33 micrographs (in triplicate) for each experimental condition.

[4] = tested on: biosensor cells (HEK293T); assay: Toxicity to biosensor cells under seeding assay conditions; type: cell-based; settings: under the assayed conditions (10 μM screen)
Procedure: HEK293T cell lines stably expressing tau-K18 P301S-eYFP were obtained from Marc Diamond[25] and used without further characterization or authentication. Cells were maintained in DMEM (Life Technologies, cat. 11965092) supplemented with 10% (vol/vol) FBS (Life Technologies, cat. A3160401), 1% penicillin/streptomycin (Life Technologies, cat. 15140122), and 1% Glutamax (Life Technologies, cat. 35050061) at 37 °C, 5% CO2 in a humidified incubator. […] Inhibitors were dissolved in DMSO. For seeding, inhibitor-treated seeds were sonicated in a cuphorn water bath for 3 min, and then mixed with 1 volume of […] (Life Technologies, cat. 11668027) prepared by diluting 1 µl of Lipofectamine in 19 µl of OptiMEM. After twenty minutes, 10 µl of fibrils were added to 90 µl of tau biosensor cells. The number of seeded aggregates was determined by imaging the entire well of a 96-well plate in triplicate using a Celigo Image Cytometer (Nexcelom) in the YFP channel. The number of aggregates in a given image was determined using an ImageJ 2.3.0[50] script, which subtracts the background fluorescence from unseeded cells, and then counts the number of aggregates as peaks with fluorescence above the background using the built-in Particle Analyzer. […]

Number of seeded aggregates in tau biosensor cells (normalized to confluence), Fig. 2e ([1]; listed as EGCG-PBS): 1.145 and 4.487 and 178.587
Inhibition of seeding in biosensor cells [1]: prevents the formation of any seeds
Time at which reduction in aggregate level begins (GT38 dot blot) (Brain-derived tau PHFs; 37 °C): 1 to 3 h
GT38 dot blot signal (AD tau aggregates), Supp. Fig. 1 (Brain-derived tau PHFs; EGCG incubation 1 h at 37 °C, relative to 0 h): 0.7905 and 0.6952 and 0.7857
AT8 dot blot signal (total hyperphosphorylated tau), Supp. Fig. 1 (Brain-derived tau PHFs; EGCG incubation 1 h at 37 °C): 0.7495 and 1.415 and 0.8474
AT8 dot blot signal (total hyperphosphorylated tau), Supp. Fig. 1 (Brain-derived tau PHFs; EGCG incubation 3 h at 37 °C): 1.189 and 1.169 and 0.7844
GT38 dot blot signal (AD tau aggregates), Supp. Fig. 1 (Brain-derived tau PHFs; EGCG incubation 3 h at 37 °C): 0.6381 and 0.5905 and 0.6857
AT8 dot blot signal (total hyperphosphorylated tau), Supp. Fig. 1 (Brain-derived tau PHFs; EGCG incubation 6 h at 37 °C): 1.107 and 1.408 and 0.8471
GT38 dot blot signal (AD tau aggregates), Supp. Fig. 1 (Brain-derived tau PHFs; EGCG incubation 6 h at 37 °C): 0.3571 and 0.3381 and 0.6238
AT8 dot blot signal (total hyperphosphorylated tau), Supp. Fig. 1 (Brain-derived tau PHFs; EGCG incubation 24 h at 37 °C): 1.122 and 1.203 and 1.059
GT38 dot blot signal (AD tau aggregates), Supp. Fig. 1 (Brain-derived tau PHFs; EGCG incubation 24 h at 37 °C): 0.2286 and 0.2714 and 0.4143
Occupancy of density at Site 1 relative to fibril backbone (AD-tau PHF; 1-hour EGCG): 43%
Occupancy of density at Site 2 relative to fibril backbone (AD-tau PHF; 1-hour EGCG): 44%
Occupancy of density at Site 3 relative to fibril backbone (AD-tau PHF; 1-hour EGCG): 54%
Occupancy of EGCG at Site 1 (AD-tau PHF; 3-h structure): 66%
Occupancy of density at Site 1 relative to fibril backbone (AD-tau PHF; 3 hr. EGCG): 67%
Occupancy of density at Site 2 relative to fibril backbone (AD-tau PHF; 3 hr. EGCG): 56%
Occupancy of density at Site 3 relative to fibril backbone (AD-tau PHF; 3 hr. EGCG): 62%
Electron microscopy of tau fibrils treated with compound (qualitative) ([3]; negative stain EM): nearly gone after 24 h of incubation
Quantitation of fibril number on EM images (qEM), Fig. 3c ([3]; relative scale, fibrils alone about 1, individual replicates of 33 micrographs): 0 and 0.009982
Compound: O=C(O[C@@H]1Cc2c(O)cc(O)cc2O[C@@H]1c1cc(O)c(O)c(O)c1)c1cc(O)c(O)c(O)c1 [EGCG, Epigallocatechin gallate]
Neuronal cytotoxicity of compound (Neuro2a cells; Neuro 2a (N2a) cells, MTT): no significant cytotoxicity
MTT cell viability, compound alone, Fig. 3f (Neuro2a cells; Neuro2a, final small molecule concentration 10 µM, 24 h, vehicle = 100% viable, individual replicates, 10 µM): 108.947% and 94.1622%
viability at 24 h, 10 µM (MTT cytotoxicity assay): 102%
Reduction of insoluble tau by Western blot [2]: substantially reduce the amount of insoluble tau

Number of seeded aggregates in tau biosensor cells (normalized to confluence), Fig. 2e [1]: 356.976 and 1174.27 and 1749.15
Inhibition of seeding in biosensor cells [1]: effective inhibitor
Compound: Oc1cccc(-c2c3nc(c(-c4cccc(O)c4)c4ccc([nH]4)c(-c4cccc(O)c4)c4nc(c(-c5cccc(O)c5)c5ccc2[nH]5)CC4)C=C3)c1 [FDA-A4, Temoporfin]
Toxicity to biosensor cells [4]: toxic to biosensor cells

From paper PMC9481533, “Structure-based discovery of small molecules that disaggregate Alzheimer’s disease tissue derived tau fibrils in vitro” (Nature Communications, 2022)
